Source: patent US20240294508A1, “RIP1 MODULATORS INCLUDING AZETIDINE CYCLIC UREAS, PREPARATIONS, AND USES THEREOF” (SIRONAX LTD., priority 2021, published 2024)

Tested on: HT-29 cells
Experiment: HT29 cells 0FBS assay in vitro: TNF-α/SMAC mimetic/zVAD-FMK induced necroptosis, CellTiter-Glo cell viability (RIP1 inhibitory activity)
Assay type: cell-based
Conditions: Homo sapiens, FBS free medium, TNF-α (10 ng/ml) + SMAC mimetic (6 uM) + zVAD-FMK (10 μM), 20 hours, geometric mean EC50
Procedure, shortened: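 Luminescent ATP read-out (CellTiter-Glo) gave viability of HT-29 cells after 20 h at 37° C in serum-free medium containing compound and a necroptosis cocktail of 10 ng/ml TNF-α, 6 uM SMAC mimetic and 10 μM zVAD-FMK. EC50s are geometric means of 10-point curves run in duplicate.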

SMILES: Cn1ncc(C#N)c1-c1ccc(F)c(OC2CN(C(=O)N3N=CC[C@H]3c3cncc(C#N)c3)C2)n1 [Compound 41, (S)-5-(1-(3-((6-(4-cyano-1-methyl-1H-pyrazol-5-yl)-3-fluoropyridin-2-yl)oxy)azetidine-1-carbonyl)-4,5-dihydro-1H-pyrazol-5-yl)nicotinonitrile]
- EC50: 0.1 to 100 nM

SMILES: Cc1cnc([C@H]2CC=NN2C(=O)N2CC(Oc3cc(-c4c(C)cnn4C)ncc3F)C2)s1 [Compound 137, (R)-(3-((2-(1,4-dimethyl-1H-pyrazol-5-yl)-5-fluoropyridin-4-yl)oxy)azetidin-1-yl)(5-(5-methylthiazol-2-yl)-4,5-dihydro-1H-pyrazol-1-yl)methanone]
- EC50: 1000 to 10000 nM

SMILES: Cc1nn(-c2cc(OC3CN(C(=O)N4N=CC[C@H]4c4cc(F)cc(F)c4F)C3)c(F)cn2)c(C)c1C(=O)O [Compound 104, (S)-1-(5-fluoro-4-((1-(5-(2,3,5-trifluorophenyl)-4,5-dihydro-1H-pyrazole-1-carbonyl)azetidin-3-yl)oxy)pyridin-2-yl)-3,5-dimethyl-1H-pyrazole-4-carboxylic acid]
- EC50: 0.1 to 100 nM

SMILES: Cc1c(C(N)=O)nn(C)c1-c1cc(OC2CN(C(=O)N3N=CC[C@H]3c3cc(F)cc(C#N)c3)C2)c(F)cn1 [Compound 58, (S)-5-(4-((1-(5-(3-cyano-5-fluorophenyl)-4,5-dihydro-1H-pyrazole-1-carbonyl)azetidin-3-yl)oxy)-5-fluoropyridin-2-yl)-1,4-dimethyl-1H-pyrazole-3-carboxamide]
- EC50: 0.1 to 100 nM

SMILES: Cc1c(N)nn(C)c1-c1cc(OC2CN(C(=O)N3N=CC[C@H]3c3cncc(F)c3)C2)c(F)cn1 [Compound 61, (S)-(3-((2-(3-amino-1,4-dimethyl-1H-pyrazol-5-yl)-5-fluoropyridin-4-yl)oxy)azetidin-1-yl)(5-(5-fluoropyridin-3-yl)-4,5-dihydro-1H-pyrazol-1-yl)methanone]
- EC50: 0.1 to 100 nM

SMILES: Cc1nn(-c2cc(OC3CN(C(=O)N4N=CC[C@H]4c4ccccc4)C3)c(F)cn2)c(C)c1C(=O)NCCO [Compound 74, (S)-1-(5-fluoro-4-((1-(5-phenyl-4,5-dihydro-1H-pyrazole-1-carbonyl)azetidin-3-yl)oxy)pyridin-2-yl)-N-(2-hydroxyethyl)-3,5-dimethyl-1H-pyrazole-4-carboxamide]
- EC50: 0.1 to 100 nM

SMILES: Cc1cnn(C)c1-c1cc(OC2CN(C(=O)N3N=CCC3c3cscn3)C2)c(F)cn1 (stereo not shown) [Compound 95, (3-((2-(1,4-dimethyl-1H-pyrazol-5-yl)-5-fluoropyridin-4-yl)oxy)azetidin-1-yl)(5-(thiazol-4-yl)-4,5-dihydro-1H-pyrazol-1-yl)methanone]
- EC50: 0.1 to 100 nM

SMILES: Cc1cnc(C2CC=NN2C(=O)N2CC(Oc3nc(-c4c(C)cnn4C)c(F)cc3F)C2)s1 (stereo not shown) [Compound 129, (3-((6-(1,4-dimethyl-1H-pyrazol-5-yl)-3,5-difluoropyridin-2-yl)oxy)azetidin-1-yl)(5-(5-methylthiazol-2-yl)-4,5-dihydro-1H-pyrazol-1-yl)methanone]
- EC50: 0.1 to 100 nM

SMILES: Cn1ccnc1-c1cc(OC2CN(C(=O)N3N=CC[C@H]3c3cncc(F)c3)C2)c(F)cn1 [Compound 37, (S)-(3-((5-fluoro-2-(1-methyl-1H-imidazol-2-yl)pyridin-4-yl)oxy)azetidin-1-yl)(5-(5-fluoropyridin-3-yl)-4,5-dihydro-1H-pyrazol-1-yl)methanone]
- EC50: 0.1 to 100 nM

SMILES: Cc1noc(C)c1-c1ncc(F)c(OC2CN(C(=O)N3N=CC[C@H]3c3cncc(F)c3)C2)n1 [Compound 4, (S)-(3-((2-(3,5-dimethylisoxazol-4-yl)-5-fluoropyrimidin-4-yl)oxy)azetidin-1-yl)(5-(5-fluoropyridin-3-yl)-4,5-dihydro-1H-pyrazol-1-yl)methanone]
- EC50: 0.1 to 100 nM

SMILES: Cc1ncc(C2CC=NN2C(=O)N2CC(Oc3nc(-c4c(C)cnn4C)ccc3F)C2)s1 (stereo not shown) [Compound 106, (3-((6-(1,4-dimethyl-1H-pyrazol-5-yl)-3-fluoropyridin-2-yl)oxy)azetidin-1-yl)(5-(2-methylthiazol-5-yl)-4,5-dihydro-1H-pyrazol-1-yl)methanone]
- EC50: 0.1 to 100 nM

SMILES: Cc1cnn(C)c1-c1csc(OC2CN(C(=O)N3N=CC[C@H]3c3cc(F)cc(F)c3)C2)n1 [Compound 146, (S)-(5-(3,5-difluorophenyl)-4,5-dihydro-1H-pyrazol-1-yl)(3-((4-(1,4-dimethyl-1H-pyrazol-5-yl)thiazol-2-yl)oxy)azetidin-1-yl)methanone]
- EC50: 0.1 to 100 nM

SMILES: CCn1nccc1-c1cc(OC2CN(C(=O)N3N=CC[C@H]3c3cncc(F)c3)C2)c(F)cn1 [Compound 28, (S)-(3-((2-(1-ethyl-1H-pyrazol-5-yl)-5-fluoropyridin-4-yl)oxy)azetidin-1-yl)(5-(5-fluoropyridin-3-yl)-4,5-dihydro-1H-pyrazol-1-yl)methanone]
- EC50: 0.1 to 100 nM

SMILES: Cc1cnn(C)c1-c1cc(OC2CN(C(=O)N3N=CCC3c3cccnc3)C2)c(F)cn1 (stereo not shown) [Compound 99, (3-((2-(1,4-dimethyl-1H-pyrazol-5-yl)-5-fluoropyridin-4-yl)oxy)azetidin-1-yl)(5-(pyridin-3-yl)-4,5-dihydro-1H-pyrazol-1-yl)methanone]
- EC50: 0.1 to 100 nM

SMILES: Cc1nc(C2CC=NN2C(=O)N2CC(Oc3cc(-c4c(C)cnn4C)ncc3F)C2)c(C)s1 (stereo not shown) [Compound 128, (3-((2-(1,4-dimethyl-1H-pyrazol-5-yl)-5-fluoropyridin-4-yl)oxy)azetidin-1-yl)(5-(2,5-dimethylthiazol-4-yl)-4,5-dihydro-1H-pyrazol-1-yl)methanone]
- EC50: 100 to 1000 nM

SMILES: Cn1ncc(C#N)c1-c1csc(OC2CN(C(=O)N3N=CC[C@H]3c3cc(F)cc(F)c3)C2)n1 [Compound 150, (S)-5-(2-((1-(5-(3,5-difluorophenyl)-4,5-dihydro-1H-pyrazole-1-carbonyl)azetidin-3-yl)oxy)thiazol-4-yl)-1-methyl-1H-pyrazole-4-carbonitrile]
- EC50: 0.1 to 100 nM

SMILES: Cc1c(C#N)nn(C)c1-c1cc(OC2CN(C(=O)N3N=CC[C@H]3c3cncc(F)c3)C2)c(F)cn1 [Compound 65, (S)-5-(5-fluoro-4-((1-(5-(5-fluoropyridin-3-yl)-4,5-dihydro-1H-pyrazole-1-carbonyl)azetidin-3-yl)oxy)pyridin-2-yl)-1,4-dimethyl-1H-pyrazole-3-carbonitrile]
- EC50: 0.1 to 100 nM

SMILES: Cn1ncc(Cl)c1-c1ncc(F)c(OC2CN(C(=O)N3N=CC[C@H]3c3cncc(F)c3)C2)n1 [Compound 32, (S)-(3-((2-(4-chloro-1-methyl-1H-pyrazol-5-yl)-5-fluoropyrimidin-4-yl)oxy)azetidin-1-yl)(5-(5-fluoropyridin-3-yl)-4,5-dihydro-1H-pyrazol-1-yl)methanone]
- EC50: 0.1 to 100 nM

SMILES: Cc1nn(-c2cc(OC3CN(C(=O)N4N=CC[C@H]4c4ccccc4)C3)c(F)cn2)c(C)c1S(N)(=O)=O [Compound 113, (S)-1-(5-fluoro-4-((1-(5-phenyl-4,5-dihydro-1H-pyrazole-1-carbonyl)azetidin-3-yl)oxy)pyridin-2-yl)-3,5-dimethyl-1H-pyrazole-4-sulfonamide]
- EC50: 0.1 to 100 nM

SMILES: Cc1cnc([C@@H]2CC=NN2C(=O)N2CC(Oc3cc(-c4c(C)cnn4C)ncc3F)C2)s1 [Compound 138, (S)-(3-((2-(1,4-dimethyl-1H-pyrazol-5-yl)-5-fluoropyridin-4-yl)oxy)azetidin-1-yl)(5-(5-methylthiazol-2-yl)-4,5-dihydro-1H-pyrazol-1-yl)methanone]
- EC50: 0.1 to 100 nM

SMILES: Cc1c(-c2cc(OC3CN(C(=O)N4N=CC[C@H]4c4cc(F)cc(F)c4F)C3)c(F)cn2)nn(C)c1C(N)=O [Compound 126, 3-(5-fluoro-4-((1-(5-(2,3,5-trifluorophenyl)-4,5-dihydro-1H-pyrazole-1-carbonyl)azetidin-3-yl)oxy)pyridin-2-yl)-1,4-dimethyl-1H-pyrazole-5-carboxamide]
- EC50: 0.1 to 100 nM

SMILES: CCn1nc(C)c(-c2cc(OC3CN(C(=O)N4N=CC[C@H]4c4cc(F)cc(C#N)c4)C3)c(F)cn2)c1C [Compound 52, (S)-3-(1-(3-((2-(1-ethyl-3,5-dimethyl-1H-pyrazol-4-yl)-5-fluoropyridin-4-yl)oxy)azetidine-1-carbonyl)-4,5-dihydro-1H-pyrazol-5-yl)-5-fluorobenzonitrile]
- EC50: 0.1 to 100 nM

SMILES: Cn1ncc(Cl)c1-c1cc(OC2CN(C(=O)N3N=CC[C@H]3c3cncc(C#N)c3)C2)c(F)cn1 [Compound 44]
- EC50: 0.1 to 100 nM

SMILES: Cc1c(-c2cc(OC3CN(C(=O)N4N=CCC4c4cc(F)cc(F)c4F)C3)c(F)cn2)nn(C)c1C(N)=O (stereo not shown) [Compound 110, 3-(5-fluoro-4-((1-(5-(2,3,5-trifluorophenyl)-4,5-dihydro-1H-pyrazole-1-carbonyl)azetidin-3-yl)oxy)pyridin-2-yl)-1,4-dimethyl-1H-pyrazole-5-carboxamide]
- EC50: 0.1 to 100 nM

SMILES: Cc1c(N)nn(C)c1-c1cc(OC2CN(C(=O)N3N=CC[C@H]3c3cncc(C#N)c3)C2)c(F)cn1 [Compound 62, (S)-5-(1-(3-((2-(3-amino-1,4-dimethyl-1H-pyrazol-5-yl)-5-fluoropyridin-4-yl)oxy)azetidine-1-carbonyl)-4,5-dihydro-1H-pyrazol-5-yl)nicotinonitrile]
- EC50: 0.1 to 100 nM

SMILES: Cn1ccnc1-c1cc(OC2CN(C(=O)N3N=CC[C@H]3c3cncc(C#N)c3)C2)c(F)cn1 [Compound 38, (S)-5-(1-(3-((5-fluoro-2-(1-methyl-1H-imidazol-2-yl)pyridin-4-yl)oxy)azetidine-1-carbonyl)-4,5-dihydro-1H-pyrazol-5-yl)nicotinonitrile]
- EC50: 100 to 1000 nM

SMILES: Cc1nn(-c2cc(OC3CN(C(=O)N4N=CC[C@H]4c4cc(F)cc(F)c4)C3)c(Cl)cn2)c(C)c1C(N)=O [Compound 160, (S)-1-(5-chloro-4-((1-(5-(3,5-difluorophenyl)-4,5-dihydro-1H-pyrazole-1-carbonyl)azetidin-3-yl)oxy)pyridin-2-yl)-3,5-dimethyl-1H-pyrazole-4-carboxamide]
- EC50: 0.1 to 100 nM

SMILES: Cn1ncc(F)c1-c1cc(OC2CN(C(=O)N3N=CC[C@H]3c3cncc(F)c3)C2)c(F)cn1 [Compound 45, (S)-(3-((5-fluoro-2-(4-fluoro-1-methyl-1H-pyrazol-5-yl)pyridin-4-yl)oxy)azetidin-1-yl)(5-(5-fluoropyridin-3-yl)-4,5-dihydro-1H-pyrazol-1-yl) methanone]
- EC50: 0.1 to 100 nM
